Results reported in patent US9006250B2, “4-amino-6-(heterocyclic)picolinates and 6-amino-2-(heterocyclic)pyrimidine-4-carboxylates and their use as herbicides” (Dow AgroSciences, LLC, priority 2013, dated 2015).

Experiments:
[1] = system: CHEAL: lambsquarters (Chenopodium album); assay: Post-Emergent Test II herbicidal activity; assay type: in vivo; conditions: post-emergence, 336 h, 14 days, read-out: Visual Growth Reduction (%) 14 Days After Application CHEAL; for pest or weed control at 35 g/ha: 35 g ai/ha; for pest or weed control at 70 g/ha: 70 g ai/ha; for pest or weed control at 140 g/ha: 140 g ai/ha
Method in brief: (§1)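 Seedlings raised 7-21 d under greenhouse conditions were treated at the first or second true leaf stage. Compounds, formulated with crop oil concentrate and surfactant, were applied overhead at 187 L/ha across a serial dilution series, with solvent-blank controls. Percent visual injury was scored after 14 d.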

[2] = system: ECHCG: barnyardgrass (Echinochloa crus-galli); assay: Post-Emergent Test II herbicidal activity; assay type: in vivo; conditions: post-emergence, 336 h, 14 days, read-out: Visual Growth Reduction (%) 14 Days After Application ECHCG; for pest or weed control at 35 g/ha: 35 g ai/ha; for pest or weed control at 70 g/ha: 70 g ai/ha; for pest or weed control at 140 g/ha: 140 g ai/ha
Method in brief: as §1

[3] = system: ABUTH: velvetleaf (Abutilon theophrasti); assay: Post-Emergent Test II herbicidal activity; assay type: in vivo; conditions: post-emergence, 336 h, 14 days, read-out: Visual Growth Reduction (%) 14 Days After Application ABUTH; for pest or weed control at 35 g/ha: 35 g ai/ha; for pest or weed control at 70 g/ha: 70 g ai/ha; for pest or weed control at 140 g/ha: 140 g ai/ha
Method in brief: as §1

[4] = system: AMARE: redroot pigweed (Amaranthus retroflexus); assay: Post-Emergent Test II herbicidal activity; assay type: in vivo; conditions: post-emergence, 336 h, 14 days, read-out: Visual Growth Reduction (%) 14 Days After Application AMARE; for pest or weed control at 35 g/ha: 35 g ai/ha; for pest or weed control at 70 g/ha: 70 g ai/ha; for pest or weed control at 140 g/ha: 140 g ai/ha
Method in brief: as §1

[5] = system: CYPES: yellow nutsedge (Cyperus esculentus); assay: Post-Emergent Test II herbicidal activity; assay type: in vivo; conditions: post-emergence, 336 h, 14 days, read-out: Visual Growth Reduction (%) 14 Days After Application CYPES; for pest or weed control at 35 g/ha: 35 g ai/ha; for pest or weed control at 70 g/ha: 70 g ai/ha; for pest or weed control at 140 g/ha: 140 g ai/ha
Method in brief: as §1

[6] = system: HELAN: sunflower (Helianthus annuus); assay: Post-Emergent Test II herbicidal activity; assay type: in vivo; conditions: post-emergence, 336 h, 14 days, read-out: Visual Growth Reduction (%) 14 Days After Application HELAN; for pest or weed control at 35 g/ha: 35 g ai/ha; for pest or weed control at 70 g/ha: 70 g ai/ha; for pest or weed control at 140 g/ha: 140 g ai/ha
Method in brief: as §1

[7] = system: BRSNN: oilseed rape, canola (Brassica napus); assay: Post-Emergent Test II herbicidal activity; assay type: in vivo; conditions: post-emergence, 336 h, 14 days, read-out: Visual Growth Reduction (%) 14 Days After Application BRSNN; for pest or weed control at 35 g/ha: 35 g ai/ha; for pest or weed control at 70 g/ha: 70 g ai/ha; for pest or weed control at 140 g/ha: 140 g ai/ha
Method in brief: as §1

[8] = system: ZEAMX: maize, corn (Zea mays); assay: Post-Emergent Test II herbicidal activity; assay type: in vivo; conditions: post-emergence, 336 h, 14 days, read-out: Visual Growth Reduction (%) 14 Days After Application ZEAMX; for pest or weed control at 35 g/ha: 35 g ai/ha; for pest or weed control at 70 g/ha: 70 g ai/ha; for pest or weed control at 140 g/ha: 140 g ai/ha
Method in brief: as §1

[9] = system: EPHHL: wild poinsettia (Euphorbia heterophylla); assay: Post-Emergent Test II herbicidal activity; assay type: in vivo; conditions: post-emergence, 336 h, 14 days, read-out: Visual Growth Reduction (%) 14 Days After Application EPHHL; for pest or weed control at 35 g/ha: 35 g ai/ha; for pest or weed control at 70 g/ha: 70 g ai/ha; for pest or weed control at 140 g/ha: 140 g ai/ha
Method in brief: as §1

[10] = system: TRZAS: wheat, spring (Triticum aestivum); assay: Post-Emergent Test II herbicidal activity; assay type: in vivo; conditions: post-emergence, 336 h, 14 days, read-out: Visual Growth Reduction (%) 14 Days After Application TRZAS; for pest or weed control at 35 g/ha: 35 g ai/ha; for pest or weed control at 70 g/ha: 70 g ai/ha; for pest or weed control at 140 g/ha: 140 g ai/ha
Method in brief: as §1

[11] = system: SETFA: giant foxtail (Setaria faberi); assay: Post-Emergent Test II herbicidal activity; assay type: in vivo; conditions: post-emergence, 336 h, 14 days, read-out: Visual Growth Reduction (%) 14 Days After Application SETFA; for pest or weed control at 35 g/ha: 35 g ai/ha; for pest or weed control at 70 g/ha: 70 g ai/ha; for pest or weed control at 140 g/ha: 140 g ai/ha
Method in brief: as §1

[12] = system: ORYSA: rice (Oryza sativa); assay: Post-Emergent Test II herbicidal activity; assay type: in vivo; conditions: post-emergence, 336 h, 14 days, read-out: Visual Growth Reduction (%) 14 Days After Application ORYSA; for pest or weed control at 35 g/ha: 35 g ai/ha; for pest or weed control at 70 g/ha: 70 g ai/ha; for pest or weed control at 140 g/ha: 140 g ai/ha
Method in brief: as §1

Structure (SMILES): COC(=O)c1nc(-c2cc3nsnc3cc2F)cc(N)c1Cl [Compound 13]
- melting point: 218 to 220 °C
- pest or weed control at 35 g/ha [1]: 85 to 94%
- pest or weed control at 70 g/ha [1]: 95 to 100%
- pest or weed control at 140 g/ha [1]: 95 to 100%
- pest or weed control at 35 g/ha [2]: 75 to 84%
- pest or weed control at 70 g/ha [2]: 85 to 94%
- pest or weed control at 140 g/ha [2]: 85 to 94%
- pest or weed control at 35 g/ha [3]: 75 to 84%
- pest or weed control at 70 g/ha [3]: 85 to 94%
- pest or weed control at 140 g/ha [3]: 85 to 94%
- pest or weed control at 35 g/ha [4]: 95 to 100%
- pest or weed control at 70 g/ha [4]: 95 to 100%
- pest or weed control at 140 g/ha [4]: 95 to 100%
- pest or weed control at 35 g/ha [5]: 0 to 29%
- pest or weed control at 70 g/ha [5]: 0 to 29%
- pest or weed control at 140 g/ha [5]: 30 to 44%
- pest or weed control at 35 g/ha [6]: 30 to 44%
- pest or weed control at 70 g/ha [6]: 60 to 74%
- pest or weed control at 140 g/ha [6]: 75 to 84%
- pest or weed control at 35 g/ha [7]: 95 to 100%
- pest or weed control at 70 g/ha [7]: 95 to 100%
- pest or weed control at 140 g/ha [7]: 95 to 100%
- pest or weed control at 35 g/ha [8]: 60 to 74%
- pest or weed control at 70 g/ha [8]: 75 to 84%
- pest or weed control at 140 g/ha [8]: 85 to 94%
- pest or weed control at 35 g/ha [9]: 95 to 100%
- pest or weed control at 70 g/ha [9]: 95 to 100%
- pest or weed control at 140 g/ha [9]: 95 to 100%
- pest or weed control at 35 g/ha [10]: 0 to 29%
- pest or weed control at 70 g/ha [10]: 0 to 29%
- pest or weed control at 140 g/ha [10]: 0 to 29%
- pest or weed control at 35 g/ha [11]: 60 to 74%
- pest or weed control at 70 g/ha [11]: 60 to 74%
- pest or weed control at 140 g/ha [11]: 85 to 94%
- pest or weed control at 35 g/ha [12]: 0 to 29%
- pest or weed control at 70 g/ha [12]: 30 to 44%
- pest or weed control at 140 g/ha [12]: 30 to 44%

Structure (SMILES): COC(=O)c1nc(-c2ccc3nonc3c2C)cc(N)c1Cl [Compound 17]
- melting point: 182 to 185 °C
- pest or weed control at 35 g/ha [1]: 85 to 94%
- pest or weed control at 70 g/ha [1]: 95 to 100%
- pest or weed control at 140 g/ha [1]: 95 to 100%
- pest or weed control at 35 g/ha [2]: 0 to 29%
- pest or weed control at 70 g/ha [2]: 0 to 29%
- pest or weed control at 140 g/ha [2]: 0 to 29%
- pest or weed control at 35 g/ha [3]: 0 to 29%
- pest or weed control at 70 g/ha [3]: 45 to 59%
- pest or weed control at 140 g/ha [3]: 60 to 74%
- pest or weed control at 35 g/ha [4]: 95 to 100%
- pest or weed control at 70 g/ha [4]: 95 to 100%
- pest or weed control at 140 g/ha [4]: 95 to 100%
- pest or weed control at 35 g/ha [5]: 60 to 74%
- pest or weed control at 70 g/ha [5]: 60 to 74%
- pest or weed control at 140 g/ha [5]: 75 to 84%
- pest or weed control at 35 g/ha [6]: 0 to 29%
- pest or weed control at 70 g/ha [6]: 45 to 59%
- pest or weed control at 140 g/ha [6]: 60 to 74%
- pest or weed control at 35 g/ha [7]: 60 to 74%
- pest or weed control at 70 g/ha [7]: 75 to 84%
- pest or weed control at 140 g/ha [7]: 85 to 94%
- pest or weed control at 35 g/ha [8]: 0 to 29%
- pest or weed control at 70 g/ha [8]: 0 to 29%
- pest or weed control at 140 g/ha [8]: 0 to 29%
- pest or weed control at 35 g/ha [9]: 0 to 29%
- pest or weed control at 70 g/ha [9]: 0 to 29%
- pest or weed control at 140 g/ha [9]: 0 to 29%
- pest or weed control at 35 g/ha [10]: 0 to 29%
- pest or weed control at 70 g/ha [10]: 0 to 29%
- pest or weed control at 140 g/ha [10]: 30 to 44%
- pest or weed control at 35 g/ha [11]: 0 to 29%
- pest or weed control at 70 g/ha [11]: 0 to 29%
- pest or weed control at 140 g/ha [11]: 0 to 29%
- pest or weed control at 35 g/ha [12]: 0 to 29%
- pest or weed control at 70 g/ha [12]: 0 to 29%
- pest or weed control at 140 g/ha [12]: 0 to 29%
